Where a name gives a salt, the structure may show the parent alone. Read-outs that look alike come from different tables or passages of the source.

Consider 35 compounds from patent US8158372B2, “Agonists of a bitter taste receptor and uses thereof” (Deutsches Institut für Ernährungsforschung Potsdam-Rehbrücke, priority 2004, dated 2012).

For one test, the target named is T1, hTAS2R14 (Homo sapiens, UniProt Q9NYV8).
T1 sequence (Q9NYV8 1-317): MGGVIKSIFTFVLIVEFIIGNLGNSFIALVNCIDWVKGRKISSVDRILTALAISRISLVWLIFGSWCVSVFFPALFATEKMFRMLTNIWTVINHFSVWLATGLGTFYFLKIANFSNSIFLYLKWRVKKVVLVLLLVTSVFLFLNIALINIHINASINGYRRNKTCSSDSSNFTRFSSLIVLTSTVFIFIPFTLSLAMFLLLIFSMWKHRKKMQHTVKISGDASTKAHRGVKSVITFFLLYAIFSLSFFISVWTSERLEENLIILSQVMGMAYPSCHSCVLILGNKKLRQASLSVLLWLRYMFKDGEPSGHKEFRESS

The next test deals with T2, mTAS2R5 (Mus musculus, UniProt Q9JKT4).
T2 sequence (Q9JKT4 1-300): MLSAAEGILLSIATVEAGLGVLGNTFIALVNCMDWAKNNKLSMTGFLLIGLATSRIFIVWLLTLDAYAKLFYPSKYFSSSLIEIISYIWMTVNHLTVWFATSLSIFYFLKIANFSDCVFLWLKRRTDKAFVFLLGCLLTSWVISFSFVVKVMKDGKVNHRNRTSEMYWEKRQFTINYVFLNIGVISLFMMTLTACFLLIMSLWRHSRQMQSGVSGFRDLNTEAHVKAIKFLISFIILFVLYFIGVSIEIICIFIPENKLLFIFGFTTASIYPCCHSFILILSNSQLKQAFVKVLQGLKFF
The note with it: Chandrashekar et al. 2000; cited from earlier work.

Another test concerns the target T3, rTAS2R9 (Rattus norvegicus, UniProt Q9JKT5).
T3 sequence (Q9JKT5 1-309): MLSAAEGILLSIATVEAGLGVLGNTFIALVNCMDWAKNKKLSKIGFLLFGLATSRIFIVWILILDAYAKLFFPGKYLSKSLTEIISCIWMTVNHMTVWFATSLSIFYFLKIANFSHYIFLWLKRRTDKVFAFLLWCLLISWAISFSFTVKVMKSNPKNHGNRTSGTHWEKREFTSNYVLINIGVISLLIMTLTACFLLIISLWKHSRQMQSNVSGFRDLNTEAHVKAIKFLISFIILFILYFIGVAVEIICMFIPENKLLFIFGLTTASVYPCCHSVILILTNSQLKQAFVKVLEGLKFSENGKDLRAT
To be noted: Bufe et al. 2002; cited from earlier work.

The target in the next test is T4, mTAS2R8 (Mus musculus, UniProt Q9JKT3).
T4 sequence (Q9JKT3 1-297): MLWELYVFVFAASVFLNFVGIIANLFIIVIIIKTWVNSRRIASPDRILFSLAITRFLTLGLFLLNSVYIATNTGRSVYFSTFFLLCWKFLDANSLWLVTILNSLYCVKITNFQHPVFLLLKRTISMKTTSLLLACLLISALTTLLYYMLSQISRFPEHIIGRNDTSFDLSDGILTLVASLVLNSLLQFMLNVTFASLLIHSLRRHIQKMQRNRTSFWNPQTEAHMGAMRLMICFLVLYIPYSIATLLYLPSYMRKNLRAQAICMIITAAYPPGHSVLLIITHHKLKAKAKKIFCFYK
The note with it: denatonium at high doses; Chandrashekar et al. 2000; cited from earlier work.

Another test has as its target T5, hTAS2R4 (Homo sapiens, UniProt Q9NYW5).
T5 sequence (Q9NYW5 1-299): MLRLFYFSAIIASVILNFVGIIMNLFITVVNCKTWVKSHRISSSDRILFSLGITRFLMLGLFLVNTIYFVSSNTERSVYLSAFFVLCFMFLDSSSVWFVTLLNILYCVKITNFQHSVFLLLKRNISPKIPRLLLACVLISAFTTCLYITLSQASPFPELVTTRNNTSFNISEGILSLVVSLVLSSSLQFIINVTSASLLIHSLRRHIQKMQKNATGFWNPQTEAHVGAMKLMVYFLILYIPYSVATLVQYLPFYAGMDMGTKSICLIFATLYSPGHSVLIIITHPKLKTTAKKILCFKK
To be noted: denatonium at high doses; Chandrashekar et al. 2000; cited from earlier work.

The mark [1] stands for this setting: increase of intracellular calcium (fluorescence) in hTAS2R14 transfected cells, traces only shown as drawings, Table 1 A.

Take `O=C([O-])c1cc(=O)c2c(OCC(O)COc3cccc4oc(C(=O)[O-])cc(=O)c34)cccc2o1.[Na+].[Na+]` [cromolyn sodium salt]: the response result on hTAS2R14 (conc 5000 μM) is “n.r”.
`NC(=S)Nc1ccccc1` [phenylthiocarbamide (PTC), phenylthiocarbamide]: on hTAS2R14, the response entry was “n.r”.
With `CC(=O)OC1C[C@H]2[C@H](C)C(=O)O[C@@H]2/C=C(\C)CC/C=C/1C` (stereo partly drawn) [herbolide A], the “activation of hTAS2R14 (agonist)” value at hTAS2R14 (setting [1]) is “agonist”.
In the case of `O=C(N[C@H](CO)[C@H](O)c1ccc([N+](=O)[O-])cc1)C(Cl)Cl` [chloramphenicol], the response entry on hTAS2R14 (conc 30 μM) was “n.r”.
On to `CN1CCCC1c1cccnc1` (single isomer, unassigned; (-)) [(−)-nicotine], for which, at hTAS2R14 (conc 10 μM), the response result is reported as “n.r”.
As to `COc1cc2c(c(OC)c1OC)-c1ccc(OC)c(=O)cc1[C@@H](NC(C)=O)CC2` [colchicine], the response result at hTAS2R14 is “n.r”.
For `C=C1C(=O)OC2C3O[C@]3(C)CC/C=C(\C)CC(O)[C@@H]12` (stereo partly drawn) [hydroxy-8α-parthenolide], on hTAS2R14 (setting [1]), the “activation of hTAS2R14 (agonist)” value is on record as “agonist”.
For the compound `N[C@@H](Cc1ccccc1)C(=O)O` [L-phenylalanine], at hTAS2R14 (conc 10000 μM), the response result is “n.r”.
Turning to ouabain, the response entry on hTAS2R14 is recorded as “n.r”.
For the compound (−)-α-thujone, the “activation of hTAS2R14 (agonist)” value at hTAS2R14 is recorded as “agonist”.
Regarding `C=C1C(=O)O[C@H]2[C@H]1CC/C(C)=C/CC[C@@]1(C)O[C@@H]21` [parthenolide], the “activation of hTAS2R14 (agonist)” value on hTAS2R14 (setting [1]) is reported as “agonist”.
As for `O=C(c1ccccc1)C(O)c1ccccc1` (stereo not drawn) [benzoin], the response result at hTAS2R14 is “n.r”.
Consider `O=[N+]([O-])c1cccc2ccccc12` [1-nitronaphthalene], for which the “activation of hTAS2R14 (agonist)” value at hTAS2R14 was “agonist”.
With `C=C1C(OC(C)=O)CC/C(C)=C/[C@H]2OC(=O)[C@@H](C)[C@@H]2CC1OC(C)=O` (stereo partly drawn) [herbolide D acetate], the “activation of hTAS2R14 (agonist)” value on hTAS2R14 (setting [1]) was “agonist”.
As to strychnine nitrate, on hTAS2R14, the response entry is “n.r”.
With `C=C[C@H]1CN2CC[C@H]1C[C@H]2[C@H](O)c1ccnc2ccc(OC)cc12` [quinine sulfate dihydrate], the response result on hTAS2R14 (conc 50 μM) was “n.r”.
`CC(C)(O)[C@@H]1[C@H]2OC(=O)[C@@H]1[C@]1(O)C[C@H]3O[C@]34C(=O)O[C@H]2[C@]14C` [picrotin]: the “activation of hTAS2R14 (agonist)” value on hTAS2R14 is “agonist”.
On to `Cn1c(=O)c2c(ncn2C)n(C)c1=O` [caffeine], for which, at hTAS2R14 (conc 3000 μM), the response entry is listed as “n.r”.
Take `C[C@@H]1C[C@@H]([C@H](O)CC2CC(=O)NC(=O)C2)C(=O)[C@@H](C)C1` [cycloheximide]: the response result on hTAS2R14 is “n.r”. Moreover, the receptor response result at mTAS2R5 and at rTAS2R9 was “respond” in each case.
As for `O=C(O)c1cccc2ccccc12` [1-naphthoic acid], the “activation of hTAS2R14 (agonist)” value at hTAS2R14 (setting [1]) is reported as “agonist”.
As to `CC[N+](CC)(CC(=O)Nc1c(C)cccc1C)Cc1ccccc1` [denatonium], the receptor response entry on mTAS2R8 and at hTAS2R4 was “respond” each time.
For `CCCc1cc(=O)[nH]c(=S)[nH]1` [6-propyl-2-thiouracil (PROP), 6-propyl-2-thiouracil], the response result on hTAS2R14 (conc 100 μM) is reported as “n.r”. In addition, on hTAS2R4, the receptor response entry is on record as “to a lesser extend”.
Turning to `c1ccc2c(c1)CCc1ccccc1-2` [9,10-dihydrophenanthrene], the response result at hTAS2R14 (conc 5 μM) is “n.r”.
With `CCCC(C)(COC(N)=O)COC(=O)NC(C)C` (stereo not drawn) [carisoprodol], the response result at hTAS2R14 is listed as “n.r”.
Consider `C=C(C)[C@@H]1[C@H]2OC(=O)[C@@H]1[C@]1(O)C[C@H]3O[C@]34C(=O)O[C@H]2[C@]14C` [picrotoxinin], for which the “activation of hTAS2R14 (agonist)” value on hTAS2R14 is given as “agonist”.
On to `C1CCN2C[C@H]3CC(CN4CCCC[C@@H]34)[C@H]2C1` (single isomer, unassigned; (-)) [(−)-sparteine], for which the response result on hTAS2R14 is reported as “n.r”.
Take `CC1CCC2[C@@H]1C1CC(O)[C@H](C)C1CC[C@@]2(C)O` (stereo partly drawn) [pseudo-artabsine]: the “activation of hTAS2R14 (agonist)” value on hTAS2R14 (setting [1]) is “agonist”.
For the compound `CN1C2CCC1CC(OC(=O)C(CO)c1ccccc1)C2` (stereo not drawn) [atropine], the response result on hTAS2R14 was “n.r”.
Consider `O=C([O-])c1ccccc1.[Na+]` [sodium benzoate], for which the “activation of hTAS2R14 (agonist)” value at hTAS2R14 is “agonist”.
As for `N[C@H](Cc1ccccc1)C(=O)O` [D-phenylalanine], the response entry on hTAS2R14 (conc 10000 μM) is “n.r”.
In the case of `CCN(CCCc1ccccc1)CCCc1ccccc1.O=C(O)CC(O)(CC(=O)O)C(=O)O` [alverine citrate salt], the response entry at hTAS2R14 (conc 50 μM) is on record as “n.r”.
`O=Cc1cccc2cccc(C(=O)O)c12` [1,8-naphthaldehydic acid]: the “activation of hTAS2R14 (agonist)” value at hTAS2R14 (setting [1]) is on record as “agonist”.
Take `O=C(O)c1ccc2c(c1)OCO2` [piperonylic acid]: the “activation of hTAS2R14 (agonist)” value on hTAS2R14 is “agonist”.
As for `Cc1cc(=O)n(-c2ccccc2)n1C` [antipyrine], the response entry at hTAS2R14 was “n.r”.
Consider `O=C(O)/C=C/c1ccc(O)c(O)c1` [caffeic acid], for which, on hTAS2R14 (conc 30 μM), the response result was “n.r”.
